“And” between values parts separate entries of the source, which are not always exact repeats. Equal entries are not always repeated. Where two headings read alike, the source gives them in different places.
Experiments:
BJ = details: for The viability / The absorbance, group - Blank / The absorbance, Mean value / The absorbance: BJ; for The absorbance, group - Blank: mean minus blank; for The absorbance: single value; for The cytotoxicity: human, 220 nM
Description: (§1) Cancer cell lines HCC 1419, MCF-7, MDA-MB-468, SKBR3, PC3, HT1299, Saos-2, C-6, AsPc, MDA-MB-231, RKO, HeLa and TT, and normal cell lines HME 50 HT, BJ and CCD-1074sk were tested for changes in metabolism (XTT assay) and cell death (cell counts).
(§2) Cells were plated into 48-well Corning CellBind™ plates at densities of 20,000 cells for normal cells and 10,000˜20,000 cells for cancer cells. 24 to 48 h after plating, cells were treated with the composition according to the invention at concentrations of 4.5e-2M. The first time point treated with the composition of the invention is 0 h. At 3 days after the first treatment with the composition of the invention, medium was changed and the composition of the invention at the same concentrations were added to the cultured cells.
(§3) The XTT assay is an accepted analysis technique for viability and cytotoxicity of anticancer drugs or other pharmaceutical compositions. Cells were seeded in a 96-well tissue culture plate at a density of 10,000 cells for normal cells and 5,000 cells for cancer cells. After incubation period, the formazan dye formed was quantitated using an ELISA reader. The optimal wavelength used in experiments was 500 nm, and it was measured at 0 h, 12 h, 24 h, 48 h, 4 d and 7 d, respectively. The obtained values were generated using the software SoftMax Pro 4.8.
(§4) The cell viability was calculated according to the manufacturer's instructions as follows (the term “blank” means XTT in medium only):
(§5) Cellular cytotoxicity was calculated according to the manufacturer's instructions as follows: […]

HT 1299 = details: for The cytotoxicity / The viability: 220 nM; for The absorbance / The absorbance, Mean value / The absorbance, group - Blank: HT 1299
Description: as §1, §2, §3, §4, §5

SKBR3 = details: for The absorbance, Mean value / The absorbance, group - Blank / The absorbance: SKBR3, XTT 500 nm; for The absorbance: single wells
Description: as §1, §2, §3, §4, §5

[1] = XTT 500 nm, 2nd week (recovery), 0 h
[2] = XTT 500 nm, 2nd week (recovery), 24 h
[3] = XTT 500 nm, 2nd week (recovery), 48 h
[4] = XTT 500 nm, 2nd week (recovery), 4 d

Structure (SMILES): CC(=O)O[C@H]1C(=O)[C@@]2(C)[C@H]([C@H](OC(=O)c3ccccc3)[C@]3(O)C[C@H](OC(=O)[C@H](O)[C@@H](NC(=O)c4ccccc4)c4ccccc4)C(C)=C1C3(C)C)[C@]1(OC(C)=O)CO[C@@H]1C[C@@H]2O [Taxol]
- The viability (BJ; 1st week (LC50), 0 h): 0.6817
- The absorbance, group - Blank (BJ; 1st week (LC50), 0 h): 0.9194
- The absorbance, Mean value (BJ; 1st week (LC50), 0 h): 1.2407
- The absorbance (BJ; 1st week (LC50), 0 h): 1.2557 and 1.2397 and 1.2268
- The viability (BJ; 1st week (LC50), 12 h): 0.3531
- The absorbance, group - Blank (BJ; 1st week (LC50), 12 h): 0.1792
- The absorbance, Mean value (BJ; 1st week (LC50), 12 h): 0.5006
- The absorbance (BJ; 1st week (LC50), 12 h): 0.504 and 0.4951 and 0.5027
- The viability (BJ; 1st week (LC50), 24 h): 0.1484
- The absorbance, group - Blank (BJ; 1st week (LC50), 24 h): 0.1674
- The absorbance, Mean value (BJ; 1st week (LC50), 24 h): 0.4887
- The absorbance (BJ; 1st week (LC50), 24 h): 0.492 and 0.4863 and 0.4879
- The viability (BJ; 1st week (LC50), 48 h): 0.6457
- The absorbance, group - Blank (BJ; 1st week (LC50), 48 h): 1.3032
- The absorbance, Mean value (BJ; 1st week (LC50), 48 h): 1.6245
- The absorbance (BJ; 1st week (LC50), 48 h): 1.6877 and 1.5017 and 1.6842
- The viability (BJ; 1st week (LC50), 4 d): 0.5117
- The absorbance, group - Blank (BJ; 1st week (LC50), 4 d): 1.1564
- The absorbance, Mean value (BJ; 1st week (LC50), 4 d): 1.4777
- The absorbance (BJ; 1st week (LC50), 4 d): 1.4687 and 1.4879 and 1.4766
- The viability (BJ; 1st week (LC50), 7 d): 0.4809
- The absorbance, group - Blank (BJ; 1st week (LC50), 7 d): 1.0576
- The absorbance, Mean value (BJ; 1st week (LC50), 7 d): 1.3790
- The absorbance (BJ; 1st week (LC50), 7 d): 1.3256 and 1.3677 and 1.4436
- The viability (BJ; 2nd week (recovery), 0 h): 0.8858
- The absorbance, group - Blank (BJ; 2nd week (recovery), 0 h): 0.8852
- The absorbance, Mean value (BJ; 2nd week (recovery), 0 h): 1.2065
- The absorbance (BJ; 2nd week (recovery), 0 h): 1.1468 and 1.2843 and 1.1885
- The viability (BJ; 2nd week (recovery), 24 h): 2.1460
- The absorbance, group - Blank (BJ; 2nd week (recovery), 24 h): 1.0893
- The absorbance, Mean value (BJ; 2nd week (recovery), 24 h): 1.4107
- The absorbance (BJ; 2nd week (recovery), 24 h): 1.3211 and 1.5144 and 1.3966
- The viability (BJ; 2nd week (recovery), 48 h): 0.1254
- The absorbance, group - Blank (BJ; 2nd week (recovery), 48 h): 0.1415
- The absorbance, Mean value (BJ; 2nd week (recovery), 48 h): 0.4629
- The absorbance (BJ; 2nd week (recovery), 48 h): 0.451 and 0.4672 and 0.4704
- The viability (BJ; 2nd week (recovery), 4 d): 0.7693
- The absorbance, group - Blank (BJ; 2nd week (recovery), 4 d): 1.5524
- The absorbance, Mean value (BJ; 2nd week (recovery), 4 d): 1.8738
- The absorbance (BJ; 2nd week (recovery), 4 d): 1.8912 and 1.9201 and 1.8101
- The cytotoxicity (BJ; 12 h): 0.6469
- The cytotoxicity (BJ; 7 d): 0.5191
- The cytotoxicity (HT 1299; 0 h): 0.0206
- The viability (HT 1299; 0 h): 0.9794
- The cytotoxicity (HT 1299; 12 h): 0.0709
- The viability (HT 1299; 12 h): 0.9291
- The cytotoxicity (HT 1299; 24 h): 0.0409
- The viability (HT 1299; 24 h): 0.9591
- The cytotoxicity (HT 1299; 48 h): 0.0368
- The viability (HT 1299; 48 h): 0.9632
- The viability (HT 1299; 4 d): 0.8406
- The viability (HT 1299; 7 d): 0.3389
- The absorbance (HT 1299; 1st week (LC50), 0 h): 2.7643 and 2.716 and 2.6703
- The absorbance, Mean value (HT 1299; 1st week (LC50), 0 h): 2.7169
- The absorbance, group - Blank (HT 1299; 1st week (LC50), 0 h): 2.5063
- The absorbance (HT 1299; 1st week (LC50), 12 h): 2.8939 and 2.8933 and 2.8787
- The absorbance, Mean value (HT 1299; 1st week (LC50), 12 h): 2.8886
- The absorbance, group - Blank (HT 1299; 1st week (LC50), 12 h): 2.6781
- The absorbance (HT 1299; 1st week (LC50), 24 h): 2.7759 and 2.8539 and 2.8128
- The absorbance, Mean value (HT 1299; 1st week (LC50), 24 h): 2.8142
- The absorbance, group - Blank (HT 1299; 1st week (LC50), 24 h): 2.6036
- The absorbance (HT 1299; 1st week (LC50), 48 h): 2.5408 and 2.6225 and 2.6333
- The absorbance, Mean value (HT 1299; 1st week (LC50), 48 h): 2.5989
- The absorbance, group - Blank (HT 1299; 1st week (LC50), 48 h): 2.3883
- The absorbance (HT 1299; 1st week (LC50), 4 d): 2.817 and 2.6791 and 2.5786
- The absorbance, Mean value (HT 1299; 1st week (LC50), 4 d): 2.6916
- The absorbance, group - Blank (HT 1299; 1st week (LC50), 4 d): 2.4810
- The absorbance (HT 1299; 1st week (LC50), 7 d): 1.504
- The absorbance, group - Blank (HT 1299; 1st week (LC50), 7 d): 1.0771
- The absorbance, Mean value (HT 1299; [1]): 2.0676
- The absorbance, group - Blank (HT 1299; [1]): 1.7954
- The absorbance (HT 1299; XTT 500 nm, 2nd week (recovery), 0 h, single wells): 1.9675 and 1.8392 and 2.3962
- The absorbance, Mean value (HT 1299; [2]): 2.6177
- The absorbance, group - Blank (HT 1299; [2]): 2.3455
- The absorbance (HT 1299; XTT 500 nm, 2nd week (recovery), 24 h, single wells): 2.6918 and 2.5521 and 2.6093
- The absorbance, Mean value (HT 1299; [3]): 2.4695
- The absorbance, group - Blank (HT 1299; [3]): 2.1973
- The absorbance, Mean value (HT 1299; [4]): 2.3404
- The absorbance, group - Blank (HT 1299; [4]): 2.0681
- The absorbance (HT 1299; XTT 500 nm, 2nd week (recovery), 4 d, single wells): 2.6902 and 1.9256 and 2.4054
- The cytotoxicity (HT 1299; human, 0 h): 0.2984
- The viability (HT 1299; human, 0 h): 0.7016
- The cytotoxicity (HT 1299; human, 24 h): 0.1360
- The viability (HT 1299; human, 24 h): 0.8640
- The cytotoxicity (HT 1299; human, 48 h): 0.1139
- The viability (HT 1299; human, 48 h): 0.8861
- The viability (HT 1299; human, 4 d): 0.7007
- The cytotoxicity (HT 1299; human, 7 d): 0.6611
- The absorbance, Mean value (SKBR3; 1st week (LC50), 0 h): 0.3968
- The absorbance, group - Blank (SKBR3; 1st week (LC50), 0 h): 0.2164
- The absorbance (SKBR3; 1st week (LC50), 0 h): 0.4034 and 0.3885 and 0.3985
- The absorbance, Mean value (SKBR3; 1st week (LC50), 12 h): 1.5205
- The absorbance, group - Blank (SKBR3; 1st week (LC50), 12 h): 1.3402
- The absorbance, group - Blank (SKBR3; 1st week (LC50), 24 h): 1.8347
- The absorbance, Mean value (SKBR3; 1st week (LC50), 48 h): 1.6721
- The absorbance, group - Blank (SKBR3; 1st week (LC50), 48 h): 1.4917
- The absorbance (SKBR3; 1st week (LC50), 48 h): 1.6738 and 1.629 and 1.7134
- The absorbance, Mean value (SKBR3; 1st week (LC50), 4 d): 1.1935
- The absorbance (SKBR3; 1st week (LC50), 4 d): 1.2586 and 1.1724 and 1.1494
- The absorbance, Mean value (SKBR3; 1st week (LC50), 7 d): 1.0281
- The absorbance, group - Blank (SKBR3; 1st week (LC50), 7 d): 0.8478
- The absorbance (SKBR3; 1st week (LC50), 7 d): 0.9379 and 0.9708 and 1.1757
- The absorbance, Mean value (SKBR3; 2nd week (recovery), 0 h): 1.0435
- The absorbance, group - Blank (SKBR3; 2nd week (recovery), 0 h): 0.8631
- The absorbance (SKBR3; 2nd week (recovery), 0 h): 1.0568 and 1.0836 and 0.99
- The absorbance, Mean value (SKBR3; 2nd week (recovery), 24 h): 1.1704
- The absorbance, group - Blank (SKBR3; 2nd week (recovery), 24 h): 0.9900
- The absorbance (SKBR3; 2nd week (recovery), 24 h): 1.1654 and 1.3673 and 0.9784
- The absorbance, Mean value (SKBR3; 2nd week (recovery), 48 h): 1.0440
- The absorbance, group - Blank (SKBR3; 2nd week (recovery), 48 h): 0.8636
- The absorbance (SKBR3; 2nd week (recovery), 48 h): 0.9057 and 0.8251 and 1.4012
- The absorbance, Mean value (SKBR3; 2nd week (recovery), 4 d): 1.2517
- The absorbance, group - Blank (SKBR3; 2nd week (recovery), 4 d): 1.0713
- The absorbance (SKBR3; 2nd week (recovery), 4 d): 1.252 and 1.6151 and 0.888
- The absorbance, Mean value (SKBR3; 2nd week (recovery), 7 d): 0.9393
- The absorbance, group - Blank (SKBR3; 2nd week (recovery), 7 d): 0.7590
- The absorbance (SKBR3; 2nd week (recovery), 7 d): 0.7048 and 1.1412 and 0.972
- The cytotoxicity (SKBR3; human, 0 h, 220 nM): −1.4298
- The viability (SKBR3; human, 12 h, 220 nM): 0.7165
- The cytotoxicity (SKBR3; human, 24 h, 220 nM): 0.4771
- The cytotoxicity (SKBR3; human, 48 h, 220 nM): 0.6010
